Data: patent US20240058312A1, “METHODS AND MATERIALS FOR TREATING BONE LOSS” (The Penn State Research Foundation, priority 2021, published 2024)

What was measured:
[1] = test system: C57BL/6J mice with sciatic nerve, biceps femoris and quadriceps femoris muscle crush injury; assay: DEXA scanning of tibial bone after sciatic nerve and muscle crush injury; assay type: in vivo; conditions: 40 μg/mouse/day IP for 21 days
Protocol: Ten-week-old male C57BL/6J mice (Jackson Laboratories, Bar Harbor, Maine) weighing 25±3 g were used. Sciatic nerve crush injury was performed with muscle crush injury as described elsewhere (Govindappa et al., Int. Immunopharmacol., 82:106330 (2020)). Briefly, after intraperitoneal (IP) ketamine (100 mg/kg)/xylazine (10 mg/kg) anesthesia, the right hindlimb was shaved and prepared with alcohol swabs and povidone-iodine (Betadine). Using a stereo zoom binocular microscope, a lateral skin incision (˜3 cm) was made along the length of the femur and the sciatic nerve (SN) was bluntly exposed through the iliotibial band. Nerve crush injury was performed ˜3 mm proximal to the SN trifurcation and muscle crush injury was performed at the center of Biceps femoris (BF) and Quadriceps femoris (QF) muscle using calibrated forceps (5 mm tip width; 18-1107, Miltex Instruments) for 30 seconds (nerve) and 60 seconds (muscles), respectively. Uninjured contralateral normal limbs were kept without injury as controls. The skin was closed using surgical staples and post-operative slow-release buprenorphine (0.05 mg/kg) was given subcutaneously to all animals as an analgesic. […]
The data were analyzed using one-way and two-way analysis of variance (ANOVA) using GraphPad Prism Version 8.2.0. […]

[2] = test system: C57BL/6J mice with sciatic nerve, biceps femoris and quadriceps femoris muscle crush injury; assay: micro-CT of tibial bone microarchitecture after sciatic nerve and muscle crush injury; assay type: in vivo; conditions: tibial metaphysis, 40 μg/mouse/day IP for 21 days, vs. saline
Protocol: Ten-week-old male C57BL/6J mice (Jackson Laboratories, Bar Harbor, Maine) weighing 25±3 g were used. Sciatic nerve crush injury was performed with muscle crush injury as described elsewhere (Govindappa et al., Int. Immunopharmacol., 82:106330 (2020)). Briefly, after intraperitoneal (IP) ketamine (100 mg/kg)/xylazine (10 mg/kg) anesthesia, the right hindlimb was shaved and prepared with alcohol swabs and povidone-iodine (Betadine). Using a stereo zoom binocular microscope, a lateral skin incision (˜3 cm) was made along the length of the femur and the sciatic nerve (SN) was bluntly exposed through the iliotibial band. Nerve crush injury was performed ˜3 mm proximal to the SN trifurcation and muscle crush injury was performed at the center of Biceps femoris (BF) and Quadriceps femoris (QF) muscle using calibrated forceps (5 mm tip width; 18-1107, Miltex Instruments) for 30 seconds (nerve) and 60 seconds (muscles), respectively. Uninjured contralateral normal limbs were kept without injury as controls. The skin was closed using surgical staples and post-operative slow-release buprenorphine (0.05 mg/kg) was given subcutaneously to all animals as an analgesic.
The experimental animals (6 animals/group) were randomized to normal saline (0.1 mL/mouse) and 4-AP (40 μg/mouse) treatment groups. 4-AP was given by IP injection immediately after surgery and daily for 21 days. Animals were euthanized using isoflurane on post-injury day 22 to harvest hindlimbs. Harvested hindlimbs were subjected to dual-energy X-ray absorptiometry (DEXA) and microcomputed tomography (micro-CT) scanning to analyze the bone quality.
The data were analyzed using one-way and two-way analysis of variance (ANOVA) using GraphPad Prism Version 8.2.0. All values are presented as mean±SEM. Probability (P) values of <0.05 were considered statistically significant.

Nc1ccncc1 [4-AP, 4-aminopyridine]
tibial bone volume ([1]; combined nerve and muscle crush injury, P<0.05 vs. saline, FIG. 1A): significantly improves | BMD (bone mineral density) of tibial bone ([1]; nerve and muscle injury associated tibial bone, mean, P<0.05 vs. saline (76.57)): 79.75 mg/cm^2 | bone volume fraction [2]: upregulating | structural model index (SMI) [2]: downregulated | trabecular separation [2]: downregulated | trabecular thickness [2]: upregulating
